Reference: US20260262691A1, “USE OF VANILLYL ETHERS TO MODIFY FLAVOR” (Firmenich Incorporated, priority 2023, published 2026)

Assays:
[1] = Sensory panel rating of bitterness and astringency of liquid pea protein concentrate with vanillyl ethers; format: in vivo; details: pea protein 3 percent by weight in water, without sugar; vanillyl ether 0.5 ppm; sensory panelists, scale from 0 to 10
Protocol: Liquid pea protein concentrate compositions were prepared (3 percent by weight in water) without sugar added. Control and test samples were prepared. To two test samples vanillyl ethyl ether (VEE) and vanillyl butyl ether (VBE) were added, respectively, at a concentration of 0.5 ppm. The control and test samples were evaluated by sensory panelists to rate the bitterness and astringency of the control sample and the two test samples on a scale from 0 to 10. Table 2 reports the mean difference between the bitterness and astringency scores between the control sample and each of the two test samples.

[2] = Sensory panel rating of characteristics of lemon tea beverage with vanillyl ethers; format: in vivo; details: lemon tea beverage with Stevia sweetener, VEE 0.5 ppm (phloretin 8 ppm where combined), scale from 0 to 10, higher = more intense
Protocol: Samples of a lemon tea beverage were prepared.
Two test samples were prepared by adding (a) vanillyl ethyl ether (VEE) at a concentration of 0.5 ppm, and (b) vanillyl ethyl ether (VEE) at a concentration of 0.5 ppm and phloretin at a concentration of 8 ppm. The control and test samples were evaluated by sensory panelists to rate various characteristics of the control sample and the two test samples on a scale from 0 to 10.

Row | SMILES | Astringency: mean difference between scores of control sample and test sample [1] | Bitterness: mean difference between scores of control sample and test sample [1] | Off Note Intensity (mean score) ([2]; control 2.9) | Astringency (mean score) ([2]; control 3.0) | Mouthfeel (mean score) ([2]; control 3.1) | Bitterness (mean score) ([2]; control 3.8) | Unfront Sweetness (mean score) ([2]; control 4.5) | Lemon Flavor (mean score) ([2]; control 4.6) | Lingering Sweetness (mean score) ([2]; control 4.9) | Peak Sweetness (mean score) ([2]; control 5.4)
1 | CCCCOCc1ccc(O)c(OC)c1 [VBE, 4-(butoxymethyl)-2-methoxyphenol] | −2.2 | −1.0 | – | – | – | – | – | – | – | –
2 | CCOCc1ccc(O)c(OC)c1 [VEE, 4-(ethoxymethyl)-2-methoxyphenol] | −1.5 | −0.5 | 2.4 | 2.1 | 3.5 | 2.7 | 4.7 | 4.8 | 4.0 | 5.4
